Laboratory results: US20250325526A1, “USE OF TETRAHYDRONAPHTHYRIDINE DERIVATIVE FOR PREPARING PRODUCT FOR IMPROVING HYPERPIGMENTATION” (SCINNOHUB PHARMACEUTICAL CO., LTD, priority 2022, published 2025)

Legend:
Assay type in all cases: in vivo, SD rats
[1] = test system: melanin granules; assay: Rat melasma model: Fontana-Masson staining of melanin granules; details: for distribution of melanin granules: skin collected Day 58, tranexamic acid 5 mg/mL; for melanin granules in the skin tissue: skin collected Day 58, vs model group, tranexamic acid 5 mg/mL
Experimental: 3.3 Detection of indicators: The first day of modeling was denoted as Day 1, and the experimental period lasted for 58 days. […] Then the rats in each group were euthanized, their backs were depilated, and 0.5 g of full-thickness skin tissue from the depilated back was taken and placed into an ice bath, and normal saline was added to make a 10% tissue homogenate. The homogenate was centrifuged at 3000 r/min at room temperature for 10 min to obtain a supernatant of skin tissue homogenate. ELISA was carried out to detect the expression of endothelin-1 in the supernatant of skin tissue homogenate. The skin of the modeling area on the back of rats was taken and immersed in 10% neutral formaldehyde for fixation at room temperature for 4 days. Four days later (Day 62), paraffin embedding and sectioning were performed to obtain paraffin sections of skin. The HE staining was performed to observe the pathological changes of the skin tissues of rats in each group. Staining method: The dried paraffin sections were conventionally dewaxed with xylene, hydrated with descending gradient ethanol, and washed with distilled water; the nuclei were stained with hematoxylin for 2 minutes, differentiated with hydrochloric acid and alcohol for a few seconds, and washed with water to return to blue; the sections were stained with eosin stain for 1 minute, and the residual stain was washed with water; the sections were dehydrated and dried with gradient alcohol, transparentized with xylene, and blocked with neutral gum, then observed under microscope. The epidermal hyperplasia of the skin tissue sample sections, arrangement of basal cells, presence or absence of inflammatory cell infiltration in the dermis, and changes in the number of capillaries in all groups were observed according to the evaluation indexes. Fontana-Masson staining was performed to observe the skin pigmentation of the rats. […] An immunohistochemistrical assay was performed to detect the expression of tyrosinase in the skin in each group.

[2] = test system: tyrosinase; assay: Rat melasma model: immunohistochemical staining of tyrosinase in skin; details: for tyrosinase positive rate in the skin tissues: immunohistochemistry, skin collected Day 58, vs model group, P<0.001; for tyrosinase expression in the skin tissues: vs model group, P<0.01
Source text: (§1) 3.1 Modeling: Before the experiment, on Day 0, SD rats (purchased from Beijing Vital River Experimental Animal Technology Co., Ltd., SPF grade, female, 7-8 weeks old, weighing 200±20 g) were randomly grouped and numbered. The hairs on the backs of animals in each group were shaved using an electric shaver, and the short hairs on the skin were removed with a depilatory cream to fully expose the back skin. The hair removal area was slightly larger than the actual modeling area (5 cm×5 cm). Each rat was depilated once every 2-3 days to ensure that the back skin was fully exposed. On the next day (Day 1), rats in each group were weighed, and the weights were recorded when the electronic scale reading was stable. A progesterone injection was injected intramuscularly at the base of the rat's thigh (alternately between the thighs on both sides), with a drug concentration of 20 mg/mL and an injection dose of 25 mg/kg, once a day. After the intramuscular injection, the rat's back skin was irradiated with ultraviolet light at a wavelength of 280-320 nm. The light source was about 30 cm away from the rat's back skin, and the irradiation time lasted for 60 minutes each time, for a total of 4 weeks.
The injection volume was 0.05 mL/cm^2, 5 days each time, and the administration lasted for 30 days continuously. The animals in the control group (only depilated, without modeling) and the model group were given the solvent.
3.3 Detection of indicators: The first day of modeling was denoted as Day 1, and the experimental period lasted for 58 days. After the end of the experiment (Day 58), 1 hour after the last administration, the skin of the modeling area of the rats in each group was photographed for scoring of apparent indexes (scoring criteria was provided in Table 1). Then the rats in each group were euthanized, their backs were depilated, and 0.5 g of full-thickness skin tissue from the depilated back was taken and placed into an ice bath, and normal saline was added to make a 10% tissue homogenate. The homogenate was centrifuged at 3000 r/min at room temperature for 10 min to obtain a supernatant of skin tissue homogenate. ELISA was carried out to detect the expression of endothelin-1 in the supernatant of skin tissue homogenate. The skin of the modeling area on the back of rats was taken and immersed in 10% neutral formaldehyde for fixation at room temperature for 4 days. Four days later (Day 62), paraffin embedding and sectioning were performed to obtain paraffin sections of skin. The HE staining was performed to observe the pathological changes of the skin tissues of rats in each group. […]

[3] = test system: endothelin-1; assay: Rat melasma model: ELISA of ET-1 in supernatant of skin tissue homogenate; details: Day 58, vs model group, P<0.01, tranexamic acid 5 mg/mL, compounds under test 5 mg/mL and 1.5 mg/mL
Source text: as §1
(§2) The injection volume was 0.05 mL/cm^2, 5 days each time, and the administration lasted for 30 days continuously. […]

[4] = test system: rat models of melasma; assay: Rat melasma model (UVB irradiation + progesterone): apparent indexes, lesion color and area; details: Day 58, vs model group, P<0.05; local injection; tranexamic acid 5 mg/mL; compounds under test 5 mg/mL and 1.5 mg/mL
Source text: as §1, §2

[5] = test system: rat models of melasma; assay: Rat melasma model: HE staining of skin tissues; details: vs model group, tranexamic acid 5 mg/mL, compounds under test 5 mg/mL and 1.5 mg/mL
Source text: as §1, §2

| SMILES | distribution of melanin granules [1] | melanin granules in the skin tissue [1] | tyrosinase positive rate in the skin tissues [2] | tyrosinase expression in the skin tissues ([2]; 1.5 mg/mL group) | tyrosinase expression in the skin tissues ([2]; 5 mg/mL group) | ET-1 content in the skin tissue homogenate [3] | color of the lesion areas [4] | lesion area [4] | inflammatory cell infiltration [5] | thickness of the basal layer and stratum spinosum of the epidermal tissues [5] |
| --- | --- | --- | --- | --- | --- | --- | --- | --- | --- | --- |
| Cl.O=S(=O)(O)c1ccc2c(n1)CC(CCCc1ccccc1)NC2 (centres unmarked) [compound under test 3, 7-(3-phenylpropyl)-5,6,7,8-tetrahydro-1,6-naphthyridine-2-sulfonic acid hydrochloride] | distributed discontinuously only in the basal layer | significantly reduced | significantly reduced | – | – | – | – | – | – | – |
| Cl.O=P(O)(O)c1ccc2c(n1)CCNC2 [compound under test 2, (5,6,7,8-tetrahydro-1,6-naphthyridin-2-yl)phosphonic acid hydrochloride] | – | – | – | significantly different from those in the model group | significantly different from those in the model group | – | – | – | – | – |
| Cl.O=C(O)c1ccc2c(n1)CCNC2 [compound under test 1, 5,6,7,8-tetrahydro-1,6-naphthyridine-2-carboxylic acid hydrochloride] | distributed discontinuously only in the basal layer | significantly reduced | significantly reduced | – | – | – | – | – | – | – |
| NC[C@H]1CC[C@H](C(=O)O)CC1 [tranexamic acid, Tranexamic acid] | – | reduced | – | – | – | significantly reduced | significantly lighter | significantly reduced | improved | significantly reduced |
